In data set [1] the target is T1, TRPM8-Y745H mutant channel (Mus musculus, UniProt Q8R4D5, Y745H).
T1 construct: The full length cDNA encoding mouse TRPM8 (NM_134252) in pcDNA5; expressed in transfected cells; host or cells: HEK293
The data set can be described thus: Calcium imaging (Fura-2) of HEK293 cells expressing TRPM8-Y745H. The data set is classed as cell-based. As to the method:
(§1) The full length cDNA encoding mouse TRPM8 (NM_134252) in pcDNA5 (Invitrogen) was kindly provided by Dr. Ardem Patapoutian, (Scripps Research Institute, La Jolla, CA). The TRPM8-Y745H mutant was obtained by site-directed mutagenesis with the following primers: (for) 5'-[…]-3'; (rev) 5'-[…]-3', and Pfu Turbo Taq DNA Polymerase (Roche).
(§2) HEK293 cells were cultured in DMEM containing 10% of foetal bovine serum and antibiotics, and plated in 2 cm^2 wells at 400.000-500.000 cells/well. 20-24 h after plating, the cells were co-transfected with eGFP (0.3 μg/well) and TRPM8-wt or TRPM8-Y745H (2 μg/well) by incubating them with a solution containing the plasmid DNA and Lipofectamine 2000 (Invitrogen) for 5 hours. Subsequently, the cells were trypsinized and replated on poly-L-lysine-coated round coverslips (6 mm diameter). 20-48 h post-transfection, GFP(+) cells were selected for calcium imaging or electrophysiology experiments.
(§3) Prior to experiment, HEK293 cells transfected with the TRPM8-wt/Y745H constructs were incubated with 5 μM Fura-2AM dissolved in the bath solution and 0.02% Pluronic (both from Invitrogen) for 40 min at 37°C in darkness. Fluorescence measurements were made with a Leica DM IRE2 inverted microscope fitted with a CCD camera (Imago QE Sensicam, TillPhotonics, Graefelfing, Germany). Fura-2 was excited at 340 nm and 380 nm with a Polychrome IV monochromator (Till Photonics) and the emitted fluorescence was filtered with a 510 nm longpass filter.
(§4) Coverslip pieces with cultured cells were placed in a microchamber and continuously perfused with solutions warmed at 33°C. The temperature was adjusted with a water-cooled Peltier device placed at the inlet of the chamber, and controlled by a feedback device. Cold-sensitivity was investigated with a temperature decrease to 18-20°C (Figure 1B).

Data set [2] addresses T2, TRPM8-wt channel (Mus musculus, UniProt Q8R4D5).
T2 construct: The full length cDNA encoding mouse TRPM8 (NM_134252) in pcDNA5; expressed in transfected cells; host or cells: HEK293
The data set can be described thus: Whole-cell patch clamp of HEK293 cells expressing TRPM8-wt. The following applies: for Inhibition of voltage-activated TRPM8-wt current: 33°C, +120 mV. Type of data set: cell-based. As to the method:
as §1, §2
(§5) Whole-cell voltage-clamp recordings of TRPM8-wt/Y745H transfected HEK293 cells were performed simultaneously with temperature recordings. Current development was monitored at a holding potential of -60 mV. For information on voltage-dependent effects, 1.25-s-duration voltage ramps from -100 to +150 mV were delivered at desired time points. Standard patch-pipettes (3-5 MΩ) were made of borosilicate glass capillaries (Harvard Apparatus Ltd, UK), and contained (in mM): 150 NaCl, 3 MgCl2, 5 EGTA, 10 HEPES, (278 mOsm/kg; pH 7.2, adjusted with NaOH). During electrophysiological recordings, a divalent cation -free bath solution was used to minimize desensitization, which contained: 150 NaCl, 10 EDTA, 10 HEPES and 10 glucose (pH 7.4 with NaOH). The divalent-free solution was used in the preparation of all chemical modulator containing solutions. Current signals were recorded with an Axopatch 200B patch-clamp amplifier (Molecular Devices, Sunnyvale, CA, U.S.A.) applying series resistance compensation (60-90%). Stimulus delivery and data acquisition were performed using pClamp 9 software (Molecular Devices). Data were sampled at 5 kHz (ramps) and 1 kHz (timecourse) and filtered online at 2 kHz.
as §4
Experiments were always performed in parallel with cells expressing TRPM8-wt and TRPM8-Y745H to minimize any day-to-day variability in experimental conditions. […]
Background: Patch clamp records ionic current or voltage across a cell membrane.

Data set [3] addresses T1, TRPM8-Y745H mutant channel. In words: Whole-cell patch clamp of HEK293 cells expressing TRPM8-Y745H. Type of data set: cell-based. The following applies: for Inhibition of voltage-activated TRPM8-Y745H current: +120 mV. As to the method:
as §1, §2, §5, §4
Experiments were always performed in parallel with cells expressing TRPM8-wt and TRPM8-Y745H to minimize any day-to-day variability in experimental conditions. To estimate the shifts in the voltage-dependence of activation of TRPM8-wt/Y745H in HEK293 cells, current-voltage (I-V) relationships from voltage ramps were fitted with an equation that combines a linear conductance multiplied by a Boltzmann activation term: [drawing 1]

In data set [4] the test system is TRPM8-wt channel. The following applies: calcium imaging (CI), cited from earlier work.
Data set [5] relates to TRPM8-wt channel. The following applies: electrophysiology (EP), +80 mV, cited from earlier work.
Data set [6] can be described thus: Solubility in the extracellular solution. Type of data set: physicochemical. The following applies: reproducible data above 20 μM complicated.
Data set [7] deals with T2, TRPM8-wt channel. In words: Calcium imaging (Fura-2) of HEK293 cells expressing TRPM8-wt. The data set is classed as cell-based. As to the method: as §1, §2, §3, §4
Data set [8] deals with T2, TRPM8-wt channel. The arrangement: method as in PMID 14757700. The following applies: 100 μM menthol-activated TRPM8-wt, FLIPR; cited from earlier work.
Where [9] appears, read: 3 μM antagonist, compared with TRPM8-wt.
Setting [10] is: 100 μM menthol-activated TRPM8-wt, modified from ref 25, read-out: IC50 menthol.
Setting [11] is: cold-activated TRPM8-wt, read-out: IC50 cold.
Where [12] appears, read: cold-activated TRPM8-wt, read-out: IC50 cold (converted).
[13] abbreviates: 100 μM, at 33°C or during cooling.

Like-named read-outs stand apart in the source and are kept apart here.

T2 sequence (Q8R4D5 whole entry): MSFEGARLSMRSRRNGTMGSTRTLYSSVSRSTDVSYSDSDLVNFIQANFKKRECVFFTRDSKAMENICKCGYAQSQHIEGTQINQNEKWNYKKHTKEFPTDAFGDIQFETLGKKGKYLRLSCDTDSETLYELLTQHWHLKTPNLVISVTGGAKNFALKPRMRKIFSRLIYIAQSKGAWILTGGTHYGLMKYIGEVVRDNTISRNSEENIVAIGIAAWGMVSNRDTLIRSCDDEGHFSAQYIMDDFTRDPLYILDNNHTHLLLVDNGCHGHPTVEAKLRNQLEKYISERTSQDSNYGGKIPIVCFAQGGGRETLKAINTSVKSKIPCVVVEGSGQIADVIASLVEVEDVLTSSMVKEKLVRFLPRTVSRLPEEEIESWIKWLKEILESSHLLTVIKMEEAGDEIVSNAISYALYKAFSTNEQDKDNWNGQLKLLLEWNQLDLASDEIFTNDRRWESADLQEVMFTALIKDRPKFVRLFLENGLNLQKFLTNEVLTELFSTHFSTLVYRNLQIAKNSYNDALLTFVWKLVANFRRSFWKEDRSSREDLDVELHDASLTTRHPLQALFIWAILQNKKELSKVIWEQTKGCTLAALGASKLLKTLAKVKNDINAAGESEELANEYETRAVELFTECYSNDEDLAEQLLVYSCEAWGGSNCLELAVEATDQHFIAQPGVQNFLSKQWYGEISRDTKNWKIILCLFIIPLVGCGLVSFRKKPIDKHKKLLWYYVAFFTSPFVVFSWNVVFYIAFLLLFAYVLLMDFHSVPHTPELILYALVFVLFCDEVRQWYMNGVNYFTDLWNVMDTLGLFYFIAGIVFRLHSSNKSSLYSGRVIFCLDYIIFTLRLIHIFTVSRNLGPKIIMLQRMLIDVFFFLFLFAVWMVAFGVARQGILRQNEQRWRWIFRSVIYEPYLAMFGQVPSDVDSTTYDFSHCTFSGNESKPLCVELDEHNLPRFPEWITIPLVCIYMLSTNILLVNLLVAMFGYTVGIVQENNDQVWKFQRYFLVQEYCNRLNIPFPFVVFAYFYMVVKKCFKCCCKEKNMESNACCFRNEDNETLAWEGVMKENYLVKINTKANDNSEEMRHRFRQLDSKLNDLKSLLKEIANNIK
T1 sequence (Q8R4D5 whole entry Y745H): as the sequence (Q8R4D5 whole entry) above, with Y745H counted along it

In the case of `CC(C)(C)c1ccc(NC(=O)N2CCN(c3ncccc3Cl)CC2)cc1` [BCTC, 4-[3-chloro-pyridin-2-yl]-piperazine-1-carboxylic acid [4-tert-butyl-phenyl]-amide], the “Block of cold-evoked [Ca2+]i response of TRPM8-Y745H” value in data set [1] (setting [9]) is “maintained its full and reversible blocking potential”. On TRPM8-wt channel [2] (3 μM), the “Inhibition of voltage-activated TRPM8-wt current” value is listed as “strong inhibition”. For the same molecule, the “Block of cooling-activated TRPM8-Y745H current” value in data set [3] (3 μM, +80 mV) is 98%. Besides, in data set [3] (33°C, 3 μM), the “Inhibition of voltage-activated TRPM8-Y745H current” value is “without affecting the block”. The IC50 in the data set on TRPM8-wt channel [4] (setting [10]) was 0.47 ± 0.01 µM; in the data set on TRPM8-wt channel [4] (setting [11]) it was 0.68 ± 0.06 µM; in the data set with TRPM8-wt channel [5] (100 μM menthol-activated TRPM8-wt, modified from ref 25, read-out: IC50 menthol (converted)) it was 0.34 µM; in the data set with TRPM8-wt channel [5] (setting [12]), 0.54 µM.
As for `Clc1ccccc1C(c1ccccc1)(c1ccccc1)n1ccnc1` [Clotrimazole, 1-[(2-chlorophenyl)diphenylmethyl]-1H-imidazole], the “Solubility in the extracellular solution” value in data set [6] is listed as “limited solubility”.
For `COc1ccc(CCCOC(Cn2ccnc2)c2ccc(OC)cc2)cc1` (centres unmarked) [SKF96365], the “Block of cold-evoked [Ca2+]i response of TRPM8-Y745H” value is “nearly complete loss of effect” in data set [1] (setting [9]) and “unable to increase block” in data set [1] (20 μM (super saturating concentration), compared with 3 μM). Further, on TRPM8-wt channel [2] (3 μM), the “Block of cold-evoked TRPM8-wt current” value was “potent antagonism”. Besides, the “Inhibition of voltage-activated TRPM8-wt current” value at TRPM8-wt channel [2] (3 μM) is “strong inhibition”. Moreover, the “Apparent gating charge during antagonist application” value at TRPM8-wt channel [2] (TRPM8-wt, cooling, 3 μM SKF96365) is listed as 0.73 ± 0.04; in data set [3] (TRPM8-Y745H, cooling, 3 μM SKF96365) it was 0.63 ± 0.04. For the same molecule, the figures for the “Block of cold-evoked TRPM8-Y745H current” value in data set [3] (3 μM) and in data set [3] (20 μM) were “completely failed to block” and “lacked any inhibitory effects”, respectively. Besides, the “Inhibition of voltage-activated TRPM8-Y745H current” value in data set [3] (33°C, 3 μM) is “fully abrogated the inhibition”. Further, the results for the IC50 in the data set with TRPM8-wt channel [4] (setting [10]), in the data set with TRPM8-wt channel [4] (setting [11]) and in the data set with TRPM8-wt channel [5] (setting [12]) were 3 ± 1 µM, 1 ± 0.2 µM and 0.8 µM, respectively.
`c1c[nH]cn1` [Imidazole, 1,3-diazacyclopenta-2,4-diene]: the “Inhibition of cooling-activated TRPM8 wild-type” value on TRPM8-wt channel [7] (20 μM, 100 μM and 1 mM) was “ineffective”. For the same molecule, the “Inhibition of cooling-activated TRPM8-Y745H” value in data set [1] (20 μM, 100 μM and 1 mM) is reported as “ineffective”.
As to `Oc1cc2c(cc1O)CN(C(=S)NCCc1ccc(Cl)cc1)CCC2` [Capsazepine, N-[2-(4-Chlorophenyl)ethyl]-1,3,4,5-tetrahydro-7,8-dihydroxy-2H-2-benzazepine-2-carbothioamide], the 50% inhibitory concentration (IC50) on TRPM8-wt channel [7] (cold-activated TRPM8-wt, calcium imaging (CI), this work) is 12 ± 2 µM; at TRPM8-wt channel [8] it was 18 ± 1 µM. In addition, the “Inhibitory potency at cooling-activated TRPM8-Y745H compared with wild-type (dose-inhibition curves)” value in data set [1] (calcium imaging, cooling-activated) was “lost part of their inhibitory potential”.
Turning to `CC1CCC(C(C)C)C(O)C1` [menthol, L-menthol], at TRPM8-wt channel [7] (setting [13]), the “Agonist effect on intracellular calcium, TRPM8-wt” value was “increase the intracellular calcium levels”. Besides, in data set [1] (setting [13]), the “Agonist effect on intracellular calcium, TRPM8-Y745H” value is reported as “lack of menthol responses”. Besides, the “Agonist effect on whole-cell current, TRPM8-Y745H” value in data set [3] (100 μM, 33°C, all potentials) is “completely insensitive to menthol”.

For orientation: IC50 means the point on the concentration scale where inhibition reaches its midpoint.

Values taken from article PMC2778643, “Differential role of the menthol-binding residue Y745 in the antagonism of thermally gated TRPM8 channels” (Molecular Pain, 2009).
